Reference: patent US10273313B2, “Multimeric mannosides, a process for preparing the same and their uses as a drug” (CENTRE NATIONAL DE LA RECHERCHE SCIENTIFIQUE, priority 2012, dated 2019)
Converted amounts (≈) assume the structure as drawn. Read-outs that look alike come from different tables or passages of the source.

Assays:
[1] = system: type-1 piliated clinical E. coli isolate UTI89; assay: Haemagglutination inhibition assay (HIA), guinea pig erythrocytes; assay type: cell-based, Escherichia coli; conditions: for MIC: read-out: Minimal inhibitory concentration (MIC) on haemagglutination
Protocol: Haemagglutination is observed as the red blood cells being held in suspension through the formation of a space-filling cross-linked network with the fimbriated bacteria.
The UIT89 clinical isolate was grown statically 37° C. for 48 hours in LB medium and analysed for haemagglutination of guinea pig red blood cells. Both bacteria and red blood cells (RBCs) were washed 3 times in ice-cold PBS (17 mM K/NaH2PO4, 150 mM NaCl). PBS was used for all dilutions. 96-well round-bottom microtiter plates were used for the dilutions. The titer for agglutination was determined in a 2-fold dilution series in PBS of the bacteria in a volume of 25 μL. Well 1 is a negative control without bacteria but 25 μL PBS. 25 μL PBS and 50 μL 5% RBCs were added to a final 100 μL volume. Upon 1 hour at 4° C., the titer was determined as the lowest concentration of bacteria that led to haemagglutination.
A bacterial concentration of twice the determined haemagglutination titer was kept constant in the haemagglutination inhibition assays. First, a 2-fold dilution series of the inhibitory compounds was performed in 25 μL PBS. Instead, in well 1 only 25 μL PBS was added as a negative control. 25 μL of the bacterial solution and 50 μl of 5% red blood cells were added to reach a final volume of 100 μL.

[2] = system: AIEC LF82 bacteria adhesion to T84 intestinal epithelial cells; assay: Adhesion assay on T84 cells, pre-, co- and post-incubation protocols (Example 21.2); assay type: cell-based, Escherichia coli; conditions: for Concentration leading to decreased adhesion levels of at least 50%: pre-incubation assay
Protocol: E. coli strain LF82 was isolated from a chronic ileal lesion of a patient with Crohn's disease (CD). Bacteria were grown routinely in Luria-Bertani (LB) broth overnight at 37° C. Intestinal epithelial cells T84 derived from colonic adenocarcinoma were maintained in an atmosphere containing 5% CO2 at 37° C. in DMEM/F12 (50/50) medium supplemented with 10% (v/v) heat-inactivated fetal calf serum (FCS), 1% L-glutamine, 100 000 U·l^−1 penicillin, 100 mg·l^−1 streptomycin, 25 μg·l^−1 amphotericin B.
T84 were seeded in 48-well plates at a concentration of 1.5×10^5 cells per well and grown for 48 h. AIEC LF82 bacteria were incubated 1 h with each mannoside prior the cell infection (pre-incubation protocol) or they were added simultaneously onto the cells (co-incubation protocol) in complete medium without antibiotics, containing heat inactivated fetal calf serum (FCS). Heptyl-mannose or compound 2 (example 1) were tested at a dose of 100; 10; 1 or 0.1 μM. D-D-mannose was tested at a dose of 10 000; 1 000; 100 or 10 μM and compound 1 (example 2bis) was tested at a concentration of 500; 100; 10 or 1 μM. Cells were infected with AIEC LF82 bacteria at a multiplicity of infection (MOI) of 10 bacteria per cell for 3 h at 37° C. For the post-incubation protocol, mannosides were incubated with cells for 3 h after bacterial infection. A washing step was realized before this post-incubation to eliminate non-adherent bacteria. Monolayers were washed in phosphate-buffered saline (PBS; pH 7.2) and cells were then lysed with 1% Triton X-100 in deionized water. Samples were diluted and plated onto Luria Bertani agar plates to determine the number of colony-forming units (CFU) recovered from the lysed monolayers. Results were expressed as percentages of residual adhesion, considering adhesion level of AIEC LF82 without mannoside treatment as 100%.

FimH = FimH (Escherichia coli, UniProt P08191); assay type: binding
Chain of FimH (P08191 22-300): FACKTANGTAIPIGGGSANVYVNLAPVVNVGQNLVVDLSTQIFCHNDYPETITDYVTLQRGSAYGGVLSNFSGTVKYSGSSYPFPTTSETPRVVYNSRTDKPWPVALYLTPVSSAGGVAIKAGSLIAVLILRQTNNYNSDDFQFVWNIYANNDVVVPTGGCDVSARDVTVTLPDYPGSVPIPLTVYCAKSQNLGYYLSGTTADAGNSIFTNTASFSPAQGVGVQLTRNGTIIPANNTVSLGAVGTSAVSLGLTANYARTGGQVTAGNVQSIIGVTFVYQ
Protocol: Journal of the American Society for Mass Spectrometry, 2009. […] Tested compounds were added to wells following with FimH treatment.
Plates were coated with 100 μl of 10 mg/ml solution of RNAse-B in 100 mM carbonate/bicarbonate buffer pH 9.6. […] 2 h. Then washed three times with 10 mM PBS containing 0.05% Tween-20. […] Wells were washed three times with 10 mM PBS+0.05% Tween-20. 100 μl of anti-body conjugated to horseradish peroxidase (1:5000) was added in buffer and incubated for 1 h at room temperature. Then washed three times with 10 mM PBS+0.05% Tween-20. Added 100 μl of TMB and incubated in dark for 2-5 min. The reaction was stopped with 100 μl/well 1N sulfuric acid. Plate absorbance was analyzed at 450 nm using microplate reader.

[3] = system: primary human peripheral venous blood monocyte-derived macrophages; assay: Macrophage-mediated phagocytosis of aged PMN cells; assay type: cell-based; conditions: 10 nM
Source text: To estimate the influence of mannose-based inhibitors on possible inhibition of phagocytosis we used primary human peripheral venous blood monocyte-derived macrophages and estimated their ability to phagocyte autologous and allogenic human blood-derived PMN cells, as described by us previous (Bilyy, R. O. et al. (2012) J Biol Chem 287, 496-503).
Primary human PMN and MoMa from healthy volunteers were used. Monocytes were isolated from peripheral blood by LymphoPrep® gradient according to manufacture's recommendations for isolation of PBMC fraction. Plastic-attached cells of PBMC fraction were then cultured for 7 days in the presence of GM-CSF (100 U/ml) and autologous serum (added at days 1, 3 and 5) to generate MoMa. After 7 days of differentiation, the MoMa population was tested. They typically contain >95% CD11b+ cells, >90% CD14+ cells and >85% CD89+ cells. Phagocytosis was assessed by pre-incubation of PMN (freshly isolated or aged for 24 h) with mannose-based inhibitor for 30 min at 37° C. at Ringer buffer. Cells were thoroughly washed three times with Ringer solution and incubated with human MoMa for 2 hours. Uningested PMN were analyzed by flow cytometry (for this reason cells were pre-stained with CFSE (Rodel, F. et al. (2005) Strahlentherapie and Onkologie: Organ der Deutschen Rontgengesellschaft . . . [et al] 181, 456-462)) or in the hemocytometric chamber using Zeiss AxioImager A1 microscope. The percentage of prey cells that had been bound to or taken up by MoMa (% of phagocytosis) was calculated.

For `OCC1OC(OCCCCCCCOCc2cn(CC3OC4OC5C(Cn6cc(COCCCCCCCOC7OC(CO)C(O)C(O)C7O)nn6)OC(OC6C(Cn7cc(COCCCCCCCOC8OC(CO)C(O)C(O)C8O)nn7)OC(OC7C(Cn8cc(COCCCCCCCOC9OC(CO)C(O)C(O)C9O)nn8)OC(OC8C(Cn9cc(COCCCCCCCOC%10OC(CO)C(O)C(O)C%10O)nn9)OC(OC9C(Cn%10cc(COCCCCCCCOC%11OC(CO)C(O)C(O)C%11O)nn%10)OC(OC%10C(Cn%11cc(COCCCCCCCOC%12OC(CO)C(O)C(O)C%12O)nn%11)OC(OC3C(O)C4O)C(O)C%10O)C(O)C9O)C(O)C8O)C(O)C7O)C(O)C6O)C(O)C5O)nn2)C(O)C(O)C1O` (centres unmarked) [Compound 2], the MIC ([1]; Escherichia coli, UTI89 1.2 10^9 CFU/ml) was 1.56 µM (≈ 5.67 µg/mL), the MIC ([1]; Escherichia coli, UTI89 1.4 10^8 CFU/ml) was 0.39 µM (≈ 1.42 µg/mL) and the MIC ([1]; Escherichia coli, UTI89 7 10^7 CFU/ml) was 0.24 µM (≈ 0.873 µg/mL). For the same molecule, the “Relative inhibitory potency (RIP), reference 1” value ([1]; RIP (UTI89 1.2 10^9 CFU/ml)) was greater than 128, the “Relative inhibitory potency (RIP), reference HM” value ([1]; RIP (UTI89 1.2 10^9 CFU/ml)) was 8 and the “Relative inhibitory potency (RIP), reference 1” value ([1]; RIP (UTI89 1.4 10^8 CFU/ml)) was 256. The “Relative inhibitory potency (RIP), reference HM” value ([1]; RIP (UTI89 1.4 10^8 CFU/ml)) was 3, the “Relative inhibitory potency (RIP), reference 1” value ([1]; RIP (UTI89 7 10^7 CFU/ml)) was 263 and the “Relative inhibitory potency (RIP), reference HM” value ([1]; RIP (UTI89 7 10^7 CFU/ml)) was 4. For the same molecule, the “Adhesion in the post-incubation protocol” value ([2]; post-incubation, 10 μM) was “significant decreased adhesion”, the “Concentration leading to decreased adhesion levels of at least 50%” value [2] was 0.1 µM and the “Inhibition of oligomannoside binding (FIG. 17)” value (FimH; compounds 1, 2, 6 and HM compared) was “most potent inhibition”. The Phagocytosis rate [3] was “no phagocytosis decrease”.

`CCCCCCCO[C@H]1O[C@H](CO)[C@@H](O)[C@H](O)[C@@H]1O` [HM, Heptylmannoside, reference compound] was tested, and the “Relative inhibitory potency (RIP), reference 1” value ([1]; RIP (UTI89 1.2 10^9 CFU/ml)) was greater than 16, the “Relative inhibitory potency (RIP), reference 3” value ([1]; RIP (UTI89 1.2 10^9 CFU/ml)) was 16 and the “Relative inhibitory potency (RIP), reference 1” value ([1]; RIP (UTI89 1.4 10^8 CFU/ml)) was 67. The “Relative inhibitory potency (RIP), reference 3” value ([1]; RIP (UTI89 1.4 10^8 CFU/ml)) was 33, the “Relative inhibitory potency (RIP), reference 1” value ([1]; RIP (UTI89 7 10^7 CFU/ml)) was 64 and the “Relative inhibitory potency (RIP), reference 3” value ([1]; RIP (UTI89 7 10^7 CFU/ml)) was 32. The MIC ([1]; UTI89 1.2 10^9 CFU/ml) was 12.5 µM (≈ 3.48 µg/mL), the MIC ([1]; UTI89 1.4 10^8 CFU/ml) was 1.50 µM (≈ 0.418 µg/mL) and the MIC ([1]; UTI89 7 10^7 CFU/ml) was 0.98 µM (≈ 0.273 µg/mL). The “Concentration leading to decreased adhesion levels of at least 50%” value [2] was 10 µM, the “Inhibition of FimH binding compared to FimH alone” value (FimH; 5 nM) was “significantly inhibited FimH binding” and the “Stability of activity in dissolved form” value (FimH; HM after 1 month storage in dissolved form vs immediately dissolved) was “loosing activity in dissolved form”. For the same molecule, the Phagocytosis rate [3] was “significantly decreased phagocytosis rate”.
